Measurements: patent US9969771B2, “Tetrapeptide having effect of inhibiting VEGF-induced angiogenesis and use thereof” (AVIXGEN INC., priority 2015, dated 2018)
Where a SMILES comes first, the peptide text is derived from it. Where no end group is shown, it is not given here. The star is where a group is joined. FITC = O=C1OC2(c3ccc(O)cc3Oc3cc(O)ccc32)c2ccc(NC(=S)*)cc21

Key:
HUVECs [1] = assay: VEGF-induced HUVEC proliferation, [3H]-thymidine incorporation assay; assay type: cell-based, human; conditions: for IC50: 3 h; for inhibition of VEGF-induced HUVEC proliferation: VEGF 10 ng/ml, [3H]-thymidine incorporation
Description: Human umbilical vein endothelial cells (HUVECs) were cultured in M199 medium, and during experiments, the cells were always used at passages 2 to 7. Meanwhile, mouse melanoma cells (B16F1 and B16F10) and human colorectal tumor cells (HCT116) were cultured in RPMI media supplemented with 10% FBS, 1 mM sodium pyruvate, 10 mM 4-(2-hydroxyethyl)-1-piperazineethanesulfonic acid and 100 U/ml penicillin-streptomycin, and human multiple myeloma cells (IM-9 and RPMI 8226) were cultured in RPMI-1640 media. All of the cells were cultured at 37° C. with 5% CO2 in a humidified incubator.
Angiogenic activity was determined by measuring cell proliferation, migration and tube formation. HUVEC proliferation was analyzed by a [3H]-thymidine incorporation assay. The HUVECs were seeded in a 24-well plate coated with gelatin at a density of 2×10^4 cells/well. […] […] […] 3H-labeled polymer DNA was evaluated with a liquid scintillation counter.

ERK = assay: Western blot, ERK phosphorylation in HUVECs; assay type: cell-based, human; conditions: VEGF / VEGF-A stimulated
Description: Cells were lyzed in RIPA buffer, and 50 μg of proteins were isolated by SDS-PAGE and then transferred to a PVDF membrane. The membrane was reacted with an antibody with respect to a target protein for 2 hours. The membrane was washed twice and reacted with a horseradish peroxidase-conjugated antibody, and then an amount of the target proteins was assessed with an enhanced chemiluminescence system.

zebrafish = assay: Zebrafish angiogenesis assay; assay type: in vivo; conditions: zebrafish embryo
Description: An adult zebrafish and an embryo were grown and maintained in a standard laboratory environment, and a zebrafish experiment was conducted according to the protocols approved by the animal ethics committee of Chungnam National University. To analyze angiogenesis, at 48 hours post fertilization (hpf), the embryo was anesthetized with tricaine (MS-222, 0.02%, embryo buffer), a peptide was administered, and FITC-dextran (2,000 kDa, Sigma) was further injected. A blood vessel image was obtained with a Leica DM5000B system at 72 hpf. As a probe for whole mount in situ hybridization, digoxigenin (DIG)-labeled RNA prepared by a cad5 (NM_001003983) gene was used. Meanwhile, a peptide was injected into the 18-hpf embryo collected at 25 hpf, fixed with 4% paraformaldehyde, washed with PBS (in 0.1% Tween20), and hybridized with DIG-labeled riboprobes (hybridization buffer). Subsequently, the resulting product was reacted with an alkaline phosphatase (AP)-conjugated anti-DIG antibody. Following reaction with an AP staining solution, a staining status was observed and visualized under a microscope (Leica, MZ-16).

HUVECs [2] = assay: FACS analysis of FITC-RLYE binding to HUVECs; parameters: species or system human
Description: HUVECs were cultured in a 60-mm culture plate for 24 hours. The cells were isolated from the plate with 5 mM EDTA-containing phosphate-buffered saline (PBS), washed with PBS three times, and suspended in 2% FBS/0.1% bovine serum albumin-containing PBS. Afterward, before or after the reaction with FITC-conjugated RLYE (SEQ ID NO: 2) (15 nM), the cells were treated with VEGF (100 ng/ml), stored on ice for 30 minutes, fixed in 2% paraformaldehyde, and assessed with a fluorescence activated cell sorter (FACS Calibur, Becton Dickinson) by flow cytometry.

Molecule | IC50 (HUVECs [1]) [nM] | inhibition of VEGF-induced HUVEC proliferation (HUVECs [1]) | inhibition of VEGF-induced ERK phosphorylation (ERK) | also measured
CC(C)C[C@H](NC(=O)[C@@H](N)CCCCN)C(=O)N[C@@H](Cc1ccc(O)cc1)C(=O)N[C@@H](CC(=O)O)C(=O)O [KLYD, reference compound] (H-KLYD-OH; N-terminus and C-terminus assumed) | 0.79 | significantly inhibited | – | –
CC(C)C[C@H](NC(=O)[C@@H](N)CCCCN)C(=O)N[C@@H](Cc1ccc(O)cc1)C(=O)N[C@@H](CCC(=O)O)C(=O)O [KLYE] (H-KLYE-OH; N-terminus and C-terminus assumed) | 0.3 | effectively inhibited | more effectively inhibited | –
CC(C)C[C@H](NC(=O)[C@@H](N)CCCNC(=N)N)C(=O)N[C@@H](Cc1ccc(O)cc1)C(=O)N[C@@H](CC(=O)O)C(=O)O [RLYD] (H-RLYD-OH; N-terminus and C-terminus assumed) | 0.14 | effectively inhibited | more effectively inhibited | –
CC(C)[C@H](NC(=O)[C@@H](N)CCCNC(=N)N)C(=O)N[C@@H](Cc1ccc(O)cc1)C(=O)N[C@@H](CCC(=O)O)C(=O)O [RVYE] (H-RVYE-OH; N-terminus and C-terminus assumed) | 0.39 | effectively inhibited | more effectively inhibited | –
EYLR: scrambled peptide against RLYE, used as a control [reference compound] | – | did not exhibit a significant inhibitory effect | – | formation of intersegmental vessels (ISV) (zebrafish): did not affect the ISV formation; formation of subintestinal vessels (SIV) (zebrafish): did not affect the SIV formation
FITC-RLYE: FITC-conjugated RLYE (SEQ ID NO: 2) peptide used for FACS and confocal binding ({FITC}-RLYE) | – | – | – | binding to HUVEC surface (FACS) (HUVECs [2]; VEGF-A-pretreated cells): did not bind; binding to HUVEC surface (FACS) (HUVECs [2]; cells not treated with VEGF-A): bound to a cell surface
KIYD: synthesized tetrapeptide based on KLYD | – | inhibitory effect similar to the positive control | – | –
KLFD: synthesized tetrapeptide based on KLYD | – | inhibitory effect similar to the positive control | – | –
KLWD: synthesized tetrapeptide based on KLYD | – | did not exhibit a significant inhibitory effect | – | –
RLME: synthesized tetrapeptide based on KLYD | – | did not exhibit a significant inhibitory effect | – | –
